# According to patent publication US20130061339A1, “METHOD OF DIAGNOSING TRICHOTILLOMANIA AND SIMILAR DISORDERS IN HUMANS AND RODENTS” (Purdue Research Foundation, priority 2011, published 2013):
# Key:
# [1] = standardized reductive capacity of urine after treatment; assay type: in vivo, mouse; settings: 24 weeks, NAC 1 g/kg/day in feed, mice that were and were not barbers at the start; P=0.0244
# Source text: (§1) Thirty-two female adult C57BL/6J mice (14 barbers and 18 non-barbers) were separated into cages with no barbers, and cages with at least one barber. Cages with no barbers were fed a diet to induce barbering, as per Dufour, et al.. Cages with barbers were fed a regular mouse diet. Half the cages in each group had their feed supplemented with NAC, at a dose of 1 g/kg/day per mouse. Urine was collected at baseline and 24 weeks, to measure: reductive capacity, which reflects the sum of unused antioxidants from the diet, and antioxidants produced to defend the body. The level of 8 hydroxy-2-deoxyguanosine (8-OH-dG) which measures DNA damage from ongoing oxidative stress was also measured at 24 weeks only. Urine concentration was controlled by measuring creatinine. Six animals provided urine too dilute for analysis. Barbering and patterns of hair loss were recorded every 2 weeks. Data were analyzed using generalized linear model (GLM) and logistic regression using JMP statistical software, available from SAS, Cary N.C.
# [2] = system: barbering behavior in C57BL/6J mice; assay: barbering in mice after 24 weeks of feed supplemented with NAC; assay type: in vivo, mouse; settings: NAC 1 g/kg/day in feed, vs mice not treated with NAC, P=0.0152
# Source text: as §1
# [3] = system: trichotillomania patients; settings: 50 trichotillomania patients, randomized double-blind placebo study [2]; cited from earlier work
smiles,measurement,setting,value
"CC(=O)N[C@@H](CS)C(=O)O [NAC, N-acetylcysteine]",standardized reductive capacity of urine after treatment,[1],only increases reductive capacity in healthy mice
same,proportion of mice barbering after 24 weeks of treatment (curative effect),"[2]; mice that were barbers at the start, regular diet",fewer mice treated with NAC were barbering
same,proportion of mice barbering after 24 weeks of treatment (preventative effect),"[2]; mice that were not barbers at the start, barbering-inducing diet",fewer mice treated with NAC were barbering
same,patients in whom symptoms were reduced,[3],56%
